This assay concerns the target T1, Hyaluronidase-1 (Homo sapiens, UniProt Q12794).
T1 sequence (Q12794 whole entry): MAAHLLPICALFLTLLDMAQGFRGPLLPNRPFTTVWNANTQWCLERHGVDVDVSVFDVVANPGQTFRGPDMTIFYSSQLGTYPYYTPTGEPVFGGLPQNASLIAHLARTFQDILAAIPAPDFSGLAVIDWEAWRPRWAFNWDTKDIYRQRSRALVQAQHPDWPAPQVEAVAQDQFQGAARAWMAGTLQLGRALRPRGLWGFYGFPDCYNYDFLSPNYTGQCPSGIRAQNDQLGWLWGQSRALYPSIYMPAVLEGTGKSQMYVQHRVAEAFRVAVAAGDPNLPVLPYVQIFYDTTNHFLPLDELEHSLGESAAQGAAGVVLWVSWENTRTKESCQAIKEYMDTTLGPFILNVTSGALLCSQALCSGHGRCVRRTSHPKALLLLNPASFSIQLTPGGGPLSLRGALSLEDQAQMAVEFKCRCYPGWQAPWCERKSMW
Put plainly: Inhibition of hyaluronidase.

The term IC50 denotes the concentration at which inhibition is half-maximal. Read a high IC50 as lower potency.

Take `O=C(O)/C=C/c1ccc(O)c(O)c1` [CAFFEIC ACID]: the IC50 was greater than 2000 µM. Under `O=C(/C=C/c1ccc(O)cc1)O[C@H](C(=O)O)[C@](O)(Cc1ccc(O)cc1)C(=O)O` [CIMICIFUGIC ACID K] stands 255 µM; under `COc1ccc(/C=C/C(=O)O[C@H](C(=O)O)[C@](O)(Cc2ccc(O)cc2)C(=O)O)cc1OC` [CIMICIFUGIC ACID L], 102 µM; under `O=C(/C=C/c1ccc(O)c(O)c1)O[C@H](C(=O)O)[C@](O)(Cc1ccccc1)C(=O)O` [CIMICIFUGIC ACID M], 173 µM. Compound `COc1ccc(/C=C\C(=O)O[C@H](C(=O)O)[C@](O)(Cc2ccc(O)c(O)c2)C(=O)O)cc1OC` [CIMICIFUGIC ACID N] had an IC50 of 120 µM. Under `COc1cc(/C=C/C(=O)O)ccc1O` [FERULATE] stands greater than 2000 µM; under `O=C(/C=C/c1ccc(O)c(O)c1)O[C@H](Cc1ccc(O)c(O)c1)C(=O)O` [ROSMARINIC ACID], 545 µM.
